Patent US11384078B2, “5,6-fused-bicyclic compounds and compositions for the treatment of parasitic diseases” (NOVARTIS AG, priority 2017, dated 2022)

Key:
Type in all cases: cell-based
[1] = test system: Trypanosoma brucei brucei (Lister 427) strain; experiment: Assay for growth inhibition against Trypanosoma brucei brucei (Cell TiterGlo ATP luminescence); conditions: Trypanosoma brucei, T. brucei brucei (Lister 427); read-out: T. Brucei (HAT) EC50
Experimental: Assay for Growth Inhibition Against Trypanosoma brucei brucei
The proliferation is quantified by the addition of Cell TiterGlo® (Promega®) a luminescent cell viability assay that measures the number of viable cells in culture based on the quantification of cellular ATP amount, which is an indicator of metabolically active cells.
Trypanosoma brucei brucei (Lister 427) strain was grown in Hirumi 9 (HMI-9) media supplemented with 10% v/v fetal bovine serum (FBS) and 10% v/v serum plus. For measurement of cell proliferation inhibition, test compounds were three fold serially diluted in duplicates to 384-well white plates, resulting in 10 dilutions for each compound. A volume of 40 μL of T. b. brucei culture (10,000 parasites/mL) was added to each well, and the assay plates were incubated at 37° C. for 2 days in a CO2 incubator. Growth inhibition was monitored by measuring ATP levels, which, is used as a surrogate marker for growth. Relative luminescence units were measured using TECAN® M1000 after 30 min of adding 40 μl of Cell TiterGlo®. IC50 values were determined by analyzing the data using HELIOS software. IC50 is defined as the lowest concentration of the compound that inhibited 50% growth of the T. b. brucei wild type strain compared to untreated controls.

[2] = test system: Leishmania donovani axenic amastigote; experiment: In vitro assay for growth inhibition of Leishmania donovani axenic amastigote (Cell TiterGlo luminescence); conditions: Leishmania donovani, L. donovani axenic amastigotes in vitro; read-out: L. donovani amastigotes EC50
Experimental: Abbreviations as used herein below have the corresponding meaning: • CPRG Chlorophenol Red-P-D-galactopyranoside • ATP adenosine triphosphate • BSA bovine serum albumin • DMSO dimethyl sulfoxide • FBS fetal bovine serum • PBS phosphate buffered saline • RPMI 1640 Rosweli Park Memorial Institute (RPMI) 1640 medium In Vitro Assay for Growth Inhibition of Leishmania donovani Axenic Amastiqote
Leishmania donovani axenic amastigote parasites are grown at 37° C., 5% CO2 in media made of RPMI 1640, 4 mM L-glutamine, 20% heat inactivated FBS, 100 units/ml of penicillin and 100 μg/ml of streptomycin, 23 μM folic acid, 100 μM adenosine, 22 mM D-glucose, 25 mM MES. The pH of media is adjusted to 5.5 at 37° C. using HCl. 20 μL of media is first dispensed into 384 well plates and 100 nL of the compounds of invention in DMSO are added to the plate wells. At the same time control compounds and DMSO are added to plates to serve as the positive and negative controls, respectively. 40 μL of parasite culture (9600 parasites) are then added to the plate wells. The plates are then placed into incubators. After two days incubation, 20 μL of Cell TiterGlo® (Promega) is added to the plate wells. The luminescence signal of each well is measured using the Envision reader (Perkin Elmer).

[3] = test system: Trypanosoma cruzi amastigotes cultured in 3T3 fibroblast cells; experiment: Assay for growth inhibition of kinetoplastid parasite Trypanosoma cruzi (beta-galactosidase Tulahuen strain, CPRG readout); conditions: Trypanosoma cruzi, Fibroblast, T. cruzi amastigotes in 3T3 fibroblast cells; read-out: Buckner infectious T. cruzi EC50
Source text: Assay for Growth Inhibition of Kinetoplastid Parasite Trypanosoma cruzi
Compounds of the invention can be assayed for inhibitor activity against Trypanosoma cruzi amastigotes cultured in 3T3 fibroblast cells. The assay is done using the mammalian stage (amastigotes) of T. cruzi that replicates in the intracellular space of host cells. The host cells are initially infected with the culture-derived trypomastigotes that rapidly invade and then divide as amastigotes. The protocol uses the Tulahuen strain of T. cruzi that has been engineered to express the E. coli beta-galactosidase gene (Lac-Z) (Antimicr. Agents Chemoth. 40:2592, 1996). This allows for a colorimetric readout by using the substrate CPRG and an absorbance plate reader.
3T3 fibroblast cells are re-suspended in RPMI-1640 medium without phenol red medium supplemented with 10% FBS (heat inactivated), 100 μg/ml penicillin, and 100 μg/ml streptomycin. Forty μL of suspension (1,000 cells) is dispensed into 384-well plates and incubated overnight at 37° C. temperature and in atmosphere containing 5% CO2. The following day, 100 nL of compounds of the invention in DMSO are added to plate wells containing 3T3 cells. At the same time control compounds (benznidazole and nifurtimox) and DMSO are added to plates to serve as the positive and negative controls, respectively. After that, 10 μL of media containing 10,000 T. cruzi trypomastigotes are added to each plate well and plates are placed back into incubators. After 6 day incubation, 10 μL of reagent solution (0.6 mM CPRG, 0.6% NP-40 in PBS) is added to plates and incubated at room temperature for 2 hours. Absorbance is then measured on SpectraMax GEMINI fluorimeter to determine relative number of T. cruzi cells present in each plate well.

SMILES | EC50 [1] [nM] | EC50 [2] [nM] | EC50 [3] [nM]
Cc1cccnc1-c1cnc2nn(-c3cc(NC(=O)N4CC[C@@H](F)C4)ccc3F)cc2c1 [Compound 4, (R)-3-fluoro-N-(4-fluoro-3-(5-(3-methylpyridin-2-yl)-2H-pyrazolo[3,4-b]pyridin-2-yl)phenyl)pyrrolidine-1-carboxamide] | < 23 | 1.3 | 1
CC1(O)CN(c2cnc3nn(-c4cc(NC(=O)N5CC(F)C5)ccc4F)cc3c2)C1 [Compound 251, 3-fluoro-N-{4-fluoro-3-[5-(3-hydroxy-3-methylazetidin-1-yl)-2H-pyrazolo[3,4-b]pyridin-2-yl]phenyl}azetidine-1-carboxamide] | 5 | 24 | 367
O=C(Nc1ccc(F)c(-n2cc3cc(N4CC(O)C4)cnc3n2)c1)N1CC(F)C1 [Compound 181, 3-fluoro-N-{4-fluoro-3-[5-(3-hydroxyazetidin-1-yl)-2H-pyrazolo[3,4-b]pyridin-2-yl]phenyl}azetidine-1-carboxamide] | < 23 | 25 | 820
O=C(Nc1ccc(F)c(-n2cc3cc(CC4CCC4)cnc3n2)c1)c1ccco1 [Compound 62, N-{3-[5-(cyclobutylmethyl)-2H-pyrazolo[3,4-b]pyridin-2-yl]-4-fluorophenyl}furan-2-carboxamide] | < 23 | 39 | 5.1
CC(C)c1cnc2nn(-c3cc(NC(=O)N4CC5(CC5)C4)ccc3F)cc2c1 [Compound 222, N-{4-fluoro-3-[5-(propan-2-yl)-2H-pyrazolo[3,4-b]pyridin-2-yl]phenyl}-5-azaspiro[2.3]hexane-5-carboxamide] | 73 | 80 | 45
CC(C)c1cnc2nn(-c3cc(NC(=O)C4(C)CCCO4)ccc3F)cc2c1 (stereo not drawn) [Compound 77, N-{4-fluoro-3-[5-(propan-2-yl)-2H-pyrazolo[3,4-b]pyridin-2-yl]phenyl}-2-methyloxolane-2-carboxamide] | 8500 | 17000 | 6500
CC(C)c1cnc2nn(-c3cc(NC(=O)N4CCC5(CC5)C4)ccc3F)cc2c1 [Compound 220, N-{4-fluoro-3-[5-(propan-2-yl)-2H-pyrazolo[3,4-b]pyridin-2-yl]phenyl}-5-azaspiro[2.4]heptane-5-carboxamide] | 42 | 15 | 6
C[C@H]1CN(c2cnc3nn(-c4cc(NC(=O)N5CC(F)C5)ccc4F)cc3c2)C[C@H](C)O1 [Compound 177, N-(3-{5-[(2S,6S)-2,6-dimethylmorpholin-4-yl]-2H-pyrazolo[3,4-b]pyridin-2-yl]-4-fluorophenyl)-3-fluoroazetidine-1-carboxamide] | < 23 | 27 | 55
CC(C)c1cnc2nn(-c3cc(NC(=O)N4CCN5CCC4CC5)ccc3F)cc2c1 [Compound 229, N-{4-fluoro-3-[5-(propan-2-yl)-2H-pyrazolo[3,4-b]pyridin-2-yl]phenyl}-1,4-diazabicyclo[3.2.2]nonane-4-carboxamide] | 12500 | 25000 | 15600
O=C(Nc1ccc(F)c(-n2cc3cc(N4CCC5(COC5)C4)cnc3n2)c1)N1CC(F)C1 [Compound 183, 3-fluoro-N-[4-fluoro-3-(5-{2-oxa-6-azaspiro[3.4]octan-6-yl}-2H-pyrazolo[3,4-b]pyridin-2-yl)phenyl}azetidine-1-carboxamide] | < 23 | 12 | 55
O=C(Nc1ccc(F)c(-n2cc3cc(C4CCC4)cnc3n2)c1)N1CC(F)(F)C1 [Compound 31, N-(3-{5-cyclobutyl-2H-pyrazolo[3,4-b]pyridin-2-yl}-4-fluorophenyl)-3,3-difluoroazetidine-1-carboxamide] | < 23 | 6.2 | 8.3
Cc1cccnc1-c1cnc2nn(-c3cc(NC(=O)N4CC(F)(F)C4)ccc3F)cc2c1 [Compound 5, 3,3-difluoro-N-(4-fluoro-3-(5-(3-methylpyridin-2-yl)-2H-pyrazolo[3,4-b]pyridin-2-yl)phenyl)azetidine-1-carboxamide] | < 23 | 3.6 | 5.3
O=C(Nc1ccc(F)c(-n2cc3cc(N4CCN(CC(F)(F)F)CC4)cnc3n2)c1)N1CC(F)(F)C1 [Compound 252, 3,3-difluoro-N-(4-fluoro-3-{5-[4-(2,2,2-trifluoroethyl)piperazin-1-yl]-2H-pyrazolo[3,4-b]pyridin-2-yl}phenyl)azetidine-1-carboxamide] | 5 | 183 | 22
CC(C)c1cnc2nn(-c3cc(NC(=O)N(C)CC(F)(F)F)ccc3F)cc2c1 [Compound 227, 1-{4-fluoro-3-[5-(propan-2-yl)-2H-pyrazolo[3,4-b]pyridin-2-yl]phenyl}-3-methyl-3-(2,2,2-trifluoroethyl)urea] | 59 | 30 | 11
CCN(C)C(=O)Nc1ccc(F)c(-n2cc3cc(C(C)C)cnc3n2)c1 [Compound 224, 3-ethyl-1-{4-fluoro-3-[5-(propan-2-yl)-2H-pyrazolo[3,4-b]pyridin-2-yl]phenyl}-3-methylurea] | 67 | 111 | 46
O=C(Nc1ccc(F)c(-n2cc3cc(-c4ccccn4)cnc3n2)c1)c1ccc(F)o1 [Compound 11, 5-fluoro-N-(4-fluoro-3-(5-(pyridin-2-yl)-2H-pyrazolo[3,4-b]pyridin-2-yl)phenyl)furan-2-carboxamide] | > 50000 | 2.8 | 1
[2H]C([2H])([2H])N(C(=O)Nc1ccc(F)c(-n2cc3cc(C(C)C)cnc3n2)c1)C([2H])([2H])[2H] [Compound 219, 1-{4-fluoro-3-[5-(propan-2-yl)-2H-pyrazolo[3,4-b]pyridin-2-yl]phenyl}-3,3-bis(^2H3)methylurea] | 17 | 34 | 15
O=C(Nc1ccc(F)c(-n2cc3cc(CC4CCC4)cnc3n2)c1)N1CC(F)C1 [Compound 26, N-{3-[5-(cyclobutylmethyl)-2H-pyrazolo[3,4-b]pyridin-2-yl]-4-fluorophenyl}-3-fluoroazetidine-1-carboxamide] | < 23 | 9.6 | 12
CO[C@@H]1CCN(C(=O)Nc2ccc(F)c(-n3cc4cc(C(C)C)cnc4n3)c2)C1 [Compound 225, (3R)-N-{4-fluoro-3-[5-(propan-2-yl)-2H-pyrazolo[3,4-b]pyridin-2-yl]phenyl}-3-methoxypyrrolidine-1-carboxamide] | 238 | 37 | 50
O=C(Nc1ccc(F)c(-n2cc3cc(C(F)(F)F)cnc3n2)c1)N1CC[C@@H](F)C1 [Compound 322, (3R)-3-fluoro-N-{4-fluoro-3-[5-(trifluoromethyl)-2H-pyrazolo[3,4-b]pyridin-2-yl]phenyl}pyrrolidine-1-carboxamide] | 5 | 12 | 3
